Source: the supplement of paper PMC11061612

Tests used:
Test in all cases: combination Emax (second highest fraction inhibited in the dose matrix, 72 h); higher = more inhibition; extreme values may be limits of the assay
[1] = system: FLO-1 (Esophageal Adenocarcinoma)
Summary of the method: (§1)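 Bliss excess equals the observed combination effect minus the expected value EA + EB − EA·EB, where EA and EB are the effects of each agent alone. Combination Emax is the second-highest inhibition within the matrix. Inhibition was scaled from CellTiter-Glo 2.0 luminescence, with 0 set by vehicle wells and 1 by blank wells, after 72 hours of two-drug dosing of cells plated in 1536-well plates.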

[2] = system: RMG-I (Ovarian Carcinoma)
Summary of the method: as §1

786-0 (Kidney Carcinoma) = system: 786-0 (Kidney Carcinoma)
Summary of the method: as §1

[3] = system: NKM-1 (Acute Myeloid Leukemia)
Summary of the method: as §1

## CN(C)CCCOc1ccc(-c2ccc3ncc4c(c3c2)n(C2CCOCC2)c(=O)n4C)cn1 [AZD0156] + C=CCn1c(=O)c2cnc(Nc3ccc(N4CCN(C)CC4)cc3)nc2n1-c1cccc(C(C)(C)O)n1 [AZD1775] (first compound max 1 µM, partner max 1 µM)
[1]
  combination Emax: 0.805
[2]
  combination Emax: 0.291
786-0 (Kidney Carcinoma)
  combination Emax: 0.536
[3]
  combination Emax: 0.853

## CN(C)CCCOc1ccc(-c2ccc3ncc4c(c3c2)n(C2CCOCC2)c(=O)n4C)cn1 [AZD0156] + CCN(CCO)CCCOc1ccc2c(Nc3cc(CC(=O)Nc4cccc(F)c4)[nH]n3)ncnc2c1 [AZD2811] (first compound max 1 µM, 7x7, partner max 1 µM)
[1]
  combination Emax: 0.267
[2]
  combination Emax: 0.093
786-0 (Kidney Carcinoma)
  combination Emax: 0.118
[3]
  combination Emax: 0.473

## CN(C)CCCOc1ccc(-c2ccc3ncc4c(c3c2)n(C2CCOCC2)c(=O)n4C)cn1 [AZD0156] + C[C@@H]1COCCN1C2=NC(=NC(=C2)C3(CC3)[S@](=N)(=O)C)C4=C5C=CNC5=NC=C4 [AZD6738] (first compound max 1 µM, 7x7, partner max 10 µM)
[1]
  combination Emax: 0.691
[2]
  combination Emax: 0.528
786-0 (Kidney Carcinoma)
  combination Emax: 0.641
[3]
  combination Emax: 0.814

## C=CCn1c(=O)c2cnc(Nc3ccc(N4CCN(C)CC4)cc3)nc2n1-c1cccc(C(C)(C)O)n1 [AZD1775] + C[C@@H]1COCCN1C2=NC(=NC(=C2)C3(CC3)[S@](=N)(=O)C)C4=C5C=CNC5=NC=C4 [AZD6738] (first compound max 1 µM, partner max 10 µM)
[1]
  combination Emax: 0.924
[2]
  combination Emax: 0.686
786-0 (Kidney Carcinoma)
  combination Emax: 0.888
[3]
  combination Emax: 0.983

## C=CCn1c(=O)c2cnc(Nc3ccc(N4CCN(C)CC4)cc3)nc2n1-c1cccc(C(C)(C)O)n1 [AZD1775] + O=C(c1cc(Cc2n[nH]c(=O)c3ccccc23)ccc1F)N1CCN(C(=O)C2CC2)CC1 [Olaparib] (first compound max 1 µM, partner max 10 µM)
[1]
  combination Emax: 0.878
[2]
  combination Emax: 0.365
786-0 (Kidney Carcinoma)
  combination Emax: 0.543
[3]
  combination Emax: 0.945

## CCN(CCO)CCCOc1ccc2c(Nc3cc(CC(=O)Nc4cccc(F)c4)[nH]n3)ncnc2c1 [AZD2811] + C=CCn1c(=O)c2cnc(Nc3ccc(N4CCN(C)CC4)cc3)nc2n1-c1cccc(C(C)(C)O)n1 [AZD1775] (first compound max 1 µM, partner max 1 µM)
[1]
  combination Emax: 0.769
[2]
  combination Emax: 0.256
786-0 (Kidney Carcinoma)
  combination Emax: 0.546
[3]
  combination Emax: 0.879

## CCN(CCO)CCCOc1ccc2c(Nc3cc(CC(=O)Nc4cccc(F)c4)[nH]n3)ncnc2c1 [AZD2811] + C[C@@H]1COCCN1C2=NC(=NC(=C2)C3(CC3)[S@](=N)(=O)C)C4=C5C=CNC5=NC=C4 [AZD6738] (first compound max 1 µM, 7x7, partner max 10 µM)
[1]
  combination Emax: 0.6
[2]
  combination Emax: 0.497
786-0 (Kidney Carcinoma)
  combination Emax: 0.714
[3]
  combination Emax: 0.879

## CCN(CCO)CCCOc1ccc2c(Nc3cc(CC(=O)Nc4cccc(F)c4)[nH]n3)ncnc2c1 [AZD2811] + O=C(c1cc(Cc2n[nH]c(=O)c3ccccc23)ccc1F)N1CCN(C(=O)C2CC2)CC1 [Olaparib] (first compound max 1 µM, 7x7, partner max 10 µM)
[1]
  combination Emax: 0.377
[2]
  combination Emax: 0.231
786-0 (Kidney Carcinoma)
  combination Emax: 0.149
[3]
  combination Emax: 0.723

## CN(CCO)CC[C@H](CSc1ccccc1)Nc1ccc(S(=O)(=O)NC(=O)c2ccc(N3CCC([C@@H](O)c4ccccc4-c4ccc(Cl)cc4)CC3)cc2)cc1S(=O)(=O)C(F)(F)F [AZD4320] + C1CN(CCC1(C(=O)N[C@@H](CCO)C2=CC=C(C=C2)Cl)N)C3=NC=NC4=C3C=CN4 [Capivasertib] (first compound max 1 µM, 7x7, partner max 3 µM)
[1]
  combination Emax: 0.343
[2]
  combination Emax: 0.708
786-0 (Kidney Carcinoma)
  combination Emax: 0.402
[3]
  combination Emax: 1

## CN(CCO)CC[C@H](CSc1ccccc1)Nc1ccc(S(=O)(=O)NC(=O)c2ccc(N3CCC([C@@H](O)c4ccccc4-c4ccc(Cl)cc4)CC3)cc2)cc1S(=O)(=O)C(F)(F)F [AZD4320] + C=CCn1c(=O)c2cnc(Nc3ccc(N4CCN(C)CC4)cc3)nc2n1-c1cccc(C(C)(C)O)n1 [AZD1775] (first compound max 1 µM, partner max 1 µM)
[1]
  combination Emax: 0.977
[2]
  combination Emax: 0.907
786-0 (Kidney Carcinoma)
  combination Emax: 0.715
[3]
  combination Emax: 1

## CN(CCO)CC[C@H](CSc1ccccc1)Nc1ccc(S(=O)(=O)NC(=O)c2ccc(N3CCC([C@@H](O)c4ccccc4-c4ccc(Cl)cc4)CC3)cc2)cc1S(=O)(=O)C(F)(F)F [AZD4320] + CCN(CCO)CCCOc1ccc2c(Nc3cc(CC(=O)Nc4cccc(F)c4)[nH]n3)ncnc2c1 [AZD2811] (first compound max 1 µM, 7x7, partner max 1 µM)
[1]
  combination Emax: 0.699
[2]
  combination Emax: 0.728
786-0 (Kidney Carcinoma)
  combination Emax: 0.166
[3]
  combination Emax: 1

## CN(CCO)CC[C@H](CSc1ccccc1)Nc1ccc(S(=O)(=O)NC(=O)c2ccc(N3CCC([C@@H](O)c4ccccc4-c4ccc(Cl)cc4)CC3)cc2)cc1S(=O)(=O)C(F)(F)F [AZD4320] + CN(C)CCCOc1ccc(-c2ccc3ncc4c(c3c2)n(C2CCOCC2)c(=O)n4C)cn1 [AZD0156] (first compound max 1 µM, 7x7, partner max 1 µM)
[1]
  combination Emax: 0.386
[2]
  combination Emax: 0.79
786-0 (Kidney Carcinoma)
  combination Emax: 0.0619
[3]
  combination Emax: 1

## CN(CCO)CC[C@H](CSc1ccccc1)Nc1ccc(S(=O)(=O)NC(=O)c2ccc(N3CCC([C@@H](O)c4ccccc4-c4ccc(Cl)cc4)CC3)cc2)cc1S(=O)(=O)C(F)(F)F [AZD4320] + C[C@@H]1COCCN1C2=NC(=NC(=C2)C3(CC3)[S@](=N)(=O)C)C4=C5C=CNC5=NC=C4 [AZD6738] (first compound max 1 µM, 7x7, partner max 10 µM)
[1]
  combination Emax: 0.742
[2]
  combination Emax: 0.882
786-0 (Kidney Carcinoma)
  combination Emax: 0.815
[3]
  combination Emax: 1

## CN(CCO)CC[C@H](CSc1ccccc1)Nc1ccc(S(=O)(=O)NC(=O)c2ccc(N3CCC([C@@H](O)c4ccccc4-c4ccc(Cl)cc4)CC3)cc2)cc1S(=O)(=O)C(F)(F)F [AZD4320] + C[C@@H](Nc1cc(F)cc(F)c1)c1cc(C(=O)N(C)C)cc2c(=O)cc(N3CCOCC3)oc12 [AZD8186] (first compound max 1 µM, 7x7, partner max 3 µM)
[1]
  combination Emax: 0.486
[2]
  combination Emax: 0.868
786-0 (Kidney Carcinoma)
  combination Emax: 0.415
[3]
  combination Emax: 1

## CN(CCO)CC[C@H](CSc1ccccc1)Nc1ccc(S(=O)(=O)NC(=O)c2ccc(N3CCC([C@@H](O)c4ccccc4-c4ccc(Cl)cc4)CC3)cc2)cc1S(=O)(=O)C(F)(F)F [AZD4320] + Cc1cc2ncnn2cc1Nc1ncc2c(n1)n(C1CCOCC1)c(=O)n2C [AZD7648] (first compound max 1 µM, 7x7, partner max 10 µM)
[1]
  combination Emax: 0.347
[2]
  combination Emax: 0.826
786-0 (Kidney Carcinoma)
  combination Emax: 0.138
[3]
  combination Emax: 1

## CN(CCO)CC[C@H](CSc1ccccc1)Nc1ccc(S(=O)(=O)NC(=O)c2ccc(N3CCC([C@@H](O)c4ccccc4-c4ccc(Cl)cc4)CC3)cc2)cc1S(=O)(=O)C(F)(F)F [AZD4320] + Cn1cnc2c(F)c(Nc3ccc(Br)cc3Cl)c(C(=O)NOCCO)cc21 [Selumetinib] (first compound max 1 µM, 7x7, partner max 3 µM)
[1]
  combination Emax: 0.453
[2]
  combination Emax: 0.912
786-0 (Kidney Carcinoma)
  combination Emax: 0.307
[3]
  combination Emax: 1

## COc1nnc2ccc(N3CCC(c4ccc(OCCN5CCN(C)C(=O)[C@H]5C)cc4)CC3)nn12 [AZD5153] + CN(CC[C@H](CSC1=CC=CC=C1)NC2=C(C=C(C=C2)S(=O)(=O)NC(=O)C3=CC=C(C=C3)N4CCC(CC4)[C@H](C5=CC=CC=C5C6=CC=C(C=C6)Cl)O)S(=O)(=O)C(F)(F)F)CCO [AZD4320] (first compound max 1 µM, 7x7, partner max 1 µM)
786-0 (Kidney Carcinoma)
  combination Emax: 0.557

## Cc1c2c(nn1C)CSCc1cc(n(C)n1)CSc1cc(c3ccccc3c1)OCCCc1c(C(=O)O)n(C)c3c-2c(Cl)ccc13 [AZD5991] + C1CN(CCC1(C(=O)N[C@@H](CCO)C2=CC=C(C=C2)Cl)N)C3=NC=NC4=C3C=CN4 [Capivasertib] (first compound max 1 µM, 7x7, partner max 3 µM)
[1]
  combination Emax: 0.347
[2]
  combination Emax: 0.236
786-0 (Kidney Carcinoma)
  combination Emax: 0.44
[3]
  combination Emax: 0.999

## Cc1c2c(nn1C)CSCc1cc(n(C)n1)CSc1cc(c3ccccc3c1)OCCCc1c(C(=O)O)n(C)c3c-2c(Cl)ccc13 [AZD5991] + C=CCn1c(=O)c2cnc(Nc3ccc(N4CCN(C)CC4)cc3)nc2n1-c1cccc(C(C)(C)O)n1 [AZD1775] (first compound max 1 µM, partner max 1 µM)
[1]
  combination Emax: 0.891
[2]
  combination Emax: 0.375
786-0 (Kidney Carcinoma)
  combination Emax: 0.804
[3]
  combination Emax: 0.979

## Cc1c2c(nn1C)CSCc1cc(n(C)n1)CSc1cc(c3ccccc3c1)OCCCc1c(C(=O)O)n(C)c3c-2c(Cl)ccc13 [AZD5991] + CC1(C)CCC(CN2CCN(c3ccc(C(=O)NS(=O)(=O)c4ccc(NCC5CCOCC5)c([N+](=O)[O-])c4)c(Oc4cnc5[nH]ccc5c4)c3)CC2)=C(c2ccc(Cl)cc2)C1 [Venetoclax] (first compound max 1 µM, 7x7, partner max 1 µM)
[1]
  combination Emax: 0.382
[2]
  combination Emax: 0.421
786-0 (Kidney Carcinoma)
  combination Emax: 0.199
[3]
  combination Emax: 0.999

## Cc1c2c(nn1C)CSCc1cc(n(C)n1)CSc1cc(c3ccccc3c1)OCCCc1c(C(=O)O)n(C)c3c-2c(Cl)ccc13 [AZD5991] + CCN(CCO)CCCOc1ccc2c(Nc3cc(CC(=O)Nc4cccc(F)c4)[nH]n3)ncnc2c1 [AZD2811] (first compound max 1 µM, 7x7, partner max 1 µM)
[1]
  combination Emax: 0.489
[2]
  combination Emax: 0.303
786-0 (Kidney Carcinoma)
  combination Emax: 0.35
[3]
  combination Emax: 0.969

## Cc1c2c(nn1C)CSCc1cc(n(C)n1)CSc1cc(c3ccccc3c1)OCCCc1c(C(=O)O)n(C)c3c-2c(Cl)ccc13 [AZD5991] + CN(C)CCCOc1ccc(-c2ccc3ncc4c(c3c2)n(C2CCOCC2)c(=O)n4C)cn1 [AZD0156] (first compound max 1 µM, 7x7, partner max 1 µM)
[1]
  combination Emax: 0.36
[2]
  combination Emax: 0.293
786-0 (Kidney Carcinoma)
  combination Emax: 0.251
[3]
  combination Emax: 0.967

## CC(=O)c1c(C)c2cnc(Nc3ccc(N4CCNCC4)cn3)nc2n(C2CCCC2)c1=O [Palbociclib] + CN(CC[C@H](CSC1=CC=CC=C1)NC2=C(C=C(C=C2)S(=O)(=O)NC(=O)C3=CC=C(C=C3)N4CCC(CC4)[C@H](C5=CC=CC=C5C6=CC=C(C=C6)Cl)O)S(=O)(=O)C(F)(F)F)CCO [AZD4320] (first compound max 10 µM, 7x7, partner max 1 µM)
786-0 (Kidney Carcinoma)
  combination Emax: 0.534

## C[C@@H](c1ccc2nccn2c1)n1nnc2ncc(-c3cnn(C)c3)nc21 [Savolitinib] + CN(CC[C@H](CSC1=CC=CC=C1)NC2=C(C=C(C=C2)S(=O)(=O)NC(=O)C3=CC=C(C=C3)N4CCC(CC4)[C@H](C5=CC=CC=C5C6=CC=C(C=C6)Cl)O)S(=O)(=O)C(F)(F)F)CCO [AZD4320] (first compound max 1 µM, 7x7, partner max 1 µM)
786-0 (Kidney Carcinoma)
  combination Emax: 0.149
